# Experimental data reported in patent US20250144067A1, “PERSONALIZED STARVATION THERAPY FOR CANCER” (Faeth Therapeutics, Inc., priority 2021, published 2025).
# Counter-ions that a name gives are not always drawn.
# Assays:
# [1] = system: NCI-H292 lung cancer cells; assay: FDA drug screening, complete media vs cholesterol-free media without statin (TABLE 1); assay type: cell-based, human
# [2] = system: NCI-H292 lung cancer cells; assay: FDA drug screening, complete media vs cholesterol-free media with simvastatin (TABLE 2); assay type: cell-based, human; conditions: for Cholesterol-free media + simvastatin (0.04 μM) / Complete Media: NCI-H292 cells
# [3] = NCI-H292 cells, cholesterol-free media without statin, FDA drug library screen
# [4] = NCI-H292 cells, complete media, FDA drug library screen
# [5] = complete vs cholesterol-free media, […]
# [6] = cholesterol-free media with simvastatin 0.04 μM, FDA drug library screen (TABLE 2)
# [7] = complete media, FDA drug library screen (TABLE 2)
# [8] = complete media minus cholesterol-free media + simvastatin (0.04 μM), […]
# [9] = complete vs cholesterol-free media, >0 enhanced anti-cancer activity, about 0 neutral, <0 antagonist
# [10] = cholesterol-free media with simvastatin 0.04 μM, cell growth value in FDA drug screen
# [11] = complete media, cell growth value in FDA drug screen
# [12] = complete media minus cholesterol-free media + simvastatin, >0 enhanced anti-cancer activity, about 0 neutral, <0 antagonist
# [13] = Complete minus Cholesterol-free, >0 enhanced anti-cancer activity, about 0 neutral, <0 antagonist
# [14] = Complete minus Cholesterol-free, greater than 0 enhanced anti-cancer activity, about 0 neutral, below 0 antagonist
# [15] = NCI-H292 cells, FDA drug library screen, cholesterol-free media without statin
# [16] = NCI-H292 cells, FDA drug library screen, complete media
# [17] = complete media minus cholesterol-free media + simvastatin (0.04 μM), >0 enhanced anti-cancer activity, about 0 neutral, <0 antagonist
# [18] = drug in cholesterol-free media with simvastatin 0.04 μM
# [19] = complete media vs cholesterol-free media + simvastatin (0.04 μM), […]
# [20] = NCI-H292 cells, cholesterol-free media without statin
# [21] = FDA drug library screen, cholesterol-free media with simvastatin 0.04 μM
# [22] = FDA drug library screen, complete media
# [23] = FDA library drug in cholesterol-free media with simvastatin 0.04 μM
# [24] = FDA library drug in complete media
# [25] = complete media vs cholesterol-free media + simvastatin (0.04 μM), >0 enhanced anti-cancer activity, about 0 neutral, <0 antagonist
# [26] = Complete minus Cholesterol-free, greater than 0 enhanced anti-cancer activity, about 0 neutral, below 0 antagonists
# [27] = NCI-H292 cells in cholesterol-free media without statin
# [28] = NCI-H292 cells in complete media
# [29] = Complete minus Cholesterol-free, […]
# [30] = complete vs cholesterol-free media, greater than 0 enhanced anti-cancer activity, about 0 neutral, below 0 antagonists
smiles,measurement,setting,value
CN(C)[C@@H]1C(O)=C(C(N)=O)C(=O)[C@@]2(O)C(O)=C3C(=O)c4c(O)c(NC(=O)CN5CCCC5)cc(F)c4C[C@H]3C[C@@H]12 [Eravacycline (dihydrochloride)],Cholesterol-free,[1]; [3],0.2139
same,Complete,[1]; [4],0.4019
same,Difference,[1]; [5],0.19
same,Cholesterol-free media + simvastatin (0.04 μM),[2]; [6],0.8088
same,Complete Media,[2]; [7],0.7999
same,Difference,[2]; [8],−0.01
COc1cc(OC)cc(N(CCNC(C)C)c2ccc3ncc(-c4cnn(C)c4)nc3c2)c1 [Erdafitinib],Cholesterol-free,[1]; [3],0.8277
same,Complete,[1]; [4],1.177
same,Difference,[1]; [9],0.35
same,Cholesterol-free media + simvastatin (0.04 μM),[2]; [10],0.8898
same,Complete Media,[2]; [11],0.9602
same,Difference,[2]; [12],0.07
O=C(O)CSCC(=O)NC1CCSC1=O (stereo not shown) [Erdosteine],Difference,[1]; [13],0.06
same,Cholesterol-free,[1]; [3],1.459
same,Complete,[1]; [4],1.516
same,Cholesterol-free media + simvastatin (0.04 μM),[2]; [10],1.196
same,Complete Media,[2]; [11],1.238
same,Difference,[2]; [12],0.04
C#Cc1cccc(Nc2ncnc3cc(OCCOC)c(OCCOC)cc23)c1 [Erlotinib (Hydrochloride)],Cholesterol-free,[1]; [3],0.2078
same,Complete,[1]; [4],0.4921
same,Difference,[1]; [9],0.28
same,Cholesterol-free media + simvastatin (0.04 μM),[2]; [10],0.6388
same,Complete Media,[2]; [11],0.67
same,Difference,[2]; [12],0.03
C#Cc1cccc(Nc2ncnc3cc(OCCOC)c(OCCOC)cc23)c1 [Erlotinib],Difference,[1]; [14],−0.17
same,Cholesterol-free,[1]; [15],0.6096
same,Complete,[1]; [16],0.4429
same,Cholesterol-free media + simvastatin (0.04 μM),[2]; [6],0.5219
same,Complete Media,[2]; [7],0.4599
same,Difference,[2]; [17],−0.06
CCOc1ccc(Cc2cc([C@]34OC[C@](CO)(O3)[C@@H](O)[C@H](O)[C@H]4O)ccc2Cl)cc1.O=C1CC[C@@H](C(=O)O)N1 [Ertugliflozin L-pyroglutamic acid],Cholesterol-free,[1]; [3],1.319
same,Complete,[1]; [4],1.576
same,Difference,[1]; [5],0.26
same,Cholesterol-free media + simvastatin (0.04 μM),[2]; [18],1.012
same,Complete Media,[2]; drug in complete media,0.8266
same,Difference,[2]; [19],−0.19
CCOc1ccc(Cc2cc([C@]34OC[C@](CO)(O3)[C@@H](O)[C@H](O)[C@H]4O)ccc2Cl)cc1 [Ertugliflozin],Difference,[1]; [14],−0.08
same,Cholesterol-free,[1]; [15],1.071
same,Complete,[1]; [16],0.9907
same,Cholesterol-free media + simvastatin (0.04 μM),[2]; [10],1.703
same,Complete Media,[2]; [11],1.808
same,Difference,[2]; [12],0.10
CCOC(=O)CCC(=O)O[C@H]1[C@H](O[C@@H]2[C@@H](C)[C@H](O[C@H]3C[C@@](C)(OC)[C@@H](O)[C@H](C)O3)[C@@H](C)C(=O)O[C@H](CC)[C@@](C)(O)[C@H](O)[C@@H](C)C(=O)[C@H](C)C[C@@]2(C)O)O[C@H](C)C[C@@H]1N(C)C [Erythromycin Ethylsuccinate],Cholesterol-free,[1]; [20],1.248
same,Complete,"[1]; NCI-H292 cells, complete media",0.8907
same,Difference,[1]; [5],−0.36
same,Cholesterol-free media + simvastatin (0.04 μM),[2]; [21],1.069
same,Complete Media,[2]; [22],0.9797
same,Difference,[2]; [19],−0.09
CCC(=O)O[C@H]1[C@H](O[C@@H]2[C@@H](C)[C@H](O[C@H]3C[C@@](C)(OC)[C@@H](O)[C@H](C)O3)[C@@H](C)C(=O)O[C@H](CC)[C@@](C)(O)[C@H](O)[C@@H](C)C(=O)[C@H](C)C[C@@]2(C)O)O[C@H](C)C[C@@H]1N(C)C [Erythromycin estolate],Cholesterol-free,[1]; [3],0.6279
same,Complete,[1]; [4],1.129
same,Difference,[1]; [9],0.50
same,Cholesterol-free media + simvastatin (0.04 μM),[2]; [23],1.347
same,Complete Media,[2]; [24],1.076
same,Difference,[2]; [25],−0.27
CC[C@H]1OC(=O)[C@H](C)[C@@H](O[C@H]2C[C@@](C)(OC)[C@@H](O)[C@H](C)O2)[C@H](C)[C@@H](O[C@@H]2O[C@H](C)C[C@H](N(C)C)[C@H]2O)[C@](C)(O)C[C@@H](C)C(=O)[C@H](C)[C@@H](O)[C@]1(C)O [Erythromycin],Difference,[1]; [26],−0.99
same,Cholesterol-free,[1]; [27],1.913
same,Complete,[1]; [28],0.9269
same,Cholesterol-free media + simvastatin (0.04 μM),[2]; [18],1.202
same,Complete Media,[2]; drug in complete media,0.9929
same,Difference,[2]; [25],−0.21
Cc1c(C(=O)Nc2ccc(S(C)(=O)=O)cc2)cn(CCO)c1-c1ccccc1C(F)(F)F [Esaxerenone],Difference,[1]; [29],−0.14
same,Cholesterol-free,[1]; [15],1.29
same,Cholesterol-free media + simvastatin (0.04 μM),[2]; [6],0.9763
same,Complete Media,[2]; [7],0.9118
same,Difference,[2]; [8],−0.06
CC(=O)O[C@H]1Cc2ccccc2N(C(N)=O)c2ccccc21 [Eslicarbazepine acetate],Difference,[1]; [13],−0.21
same,Cholesterol-free,[1]; [20],0.9987
same,Complete,"[1]; NCI-H292 cells, complete media",0.7874
same,Cholesterol-free media + simvastatin (0.04 μM),[2]; [10],1.032
same,Complete Media,[2]; [11],1.104
same,Difference,[2]; [12],0.07
NC(=O)N1c2ccccc2C[C@H](O)c2ccccc21 [Eslicarbazepine],Difference,[1]; [13],−0.02
same,Cholesterol-free,[1]; [3],0.8833
same,Complete,[1]; [4],0.8587
same,Cholesterol-free media + simvastatin (0.04 μM),[2]; [18],1.137
same,Complete Media,[2]; drug in complete media,0.9164
same,Difference,[2]; [25],−0.22
COC(=O)CCc1ccc(OCC(O)CNC(C)C)cc1 (stereo not shown) [Esmolol (hydrochloride)],Cholesterol-free,[1]; [3],0.7243
same,Complete,[1]; [4],0.9329
same,Difference,[1]; [9],0.21
same,Cholesterol-free media + simvastatin (0.04 μM),[2]; [21],1.21
same,Complete Media,[2]; [22],1.054
same,Difference,[2]; [25],−0.16
COc1ccc2[n-]c([S+]([O-])Cc3ncc(C)c(OC)c3C)nc2c1.COc1ccc2[n-]c([S+]([O-])Cc3ncc(C)c(OC)c3C)nc2c1.[Mg+2] (stereo not shown) [Esomeprazole magnesium],Cholesterol-free,[1]; [3],0.6797
same,Difference,[1]; [5],0.50
same,Cholesterol-free media + simvastatin (0.04 μM),[2]; [21],0.8343
same,Complete Media,[2]; [22],1.003
same,Difference,"[2]; complete media minus cholesterol-free media + simvastatin, […]",0.17
C[C@]12CC[C@@H]3c4ccc(OC(=O)c5ccccc5)cc4CC[C@H]3[C@@H]1CC[C@@H]2O [Estradiol benzoate],Cholesterol-free,[1]; [20],1.285
same,Complete,"[1]; NCI-H292 cells, complete media",0.9221
same,Difference,[1]; [30],−0.36
same,Cholesterol-free media + simvastatin (0.04 μM),[2]; [18],1.387
same,Complete Media,[2]; drug in complete media,1.134
same,Difference,[2]; [25],−0.25
CCC(=O)Oc1ccc2c(c1)CC[C@@H]1[C@@H]2CC[C@]2(C)[C@@H](OC(=O)CC)CC[C@@H]12 [Estradiol dipropionate],Difference,[1]; [29],−0.07
same,Cholesterol-free,[1]; [15],0.9963
same,Complete,[1]; [16],0.9247
same,Cholesterol-free media + simvastatin (0.04 μM),[2]; [23],1.891
same,Complete Media,[2]; [24],1.522
same,Difference,[2]; [19],−0.37
CCCCC(=O)O[C@H]1CC[C@H]2[C@@H]3CCc4cc(O)ccc4[C@H]3CC[C@]12C [Estradiol valerianate],Cholesterol-free,[1]; [20],1.221
same,Complete,"[1]; NCI-H292 cells, complete media",0.8253
same,Difference,[1]; [30],−0.40
same,Cholesterol-free media + simvastatin (0.04 μM),[2]; [6],0.9732
same,Complete Media,[2]; [7],0.9423
same,Difference,[2]; [17],−0.03
C[C@]12CC[C@@H]3c4ccc(O)cc4CC[C@H]3[C@@H]1CC[C@@H]2O [Estradiol],Difference,[1]; [13],0.06
same,Cholesterol-free,[1]; [3],0.707
same,Complete,[1]; [4],0.7678
same,Cholesterol-free media + simvastatin (0.04 μM),[2]; [21],1.106
same,Complete Media,[2]; [22],1.409
same,Difference,[2]; [12],0.30
C[C@]12CC[C@@H]3c4ccc(O)cc4CC[C@H]3[C@@H]1C[C@@H](O)[C@@H]2O [Estriol],Cholesterol-free,[1]; [20],1.14
same,Complete,"[1]; NCI-H292 cells, complete media",0.7448
same,Difference,[1]; [30],−0.40
same,Cholesterol-free media + simvastatin (0.04 μM),[2]; [21],0.9551
same,Complete Media,[2]; [22],0.851
same,Difference,[2]; [25],−0.10
C[C@]12CC[C@@H]3c4ccc(O)cc4CC[C@H]3[C@@H]1CCC2=O [Estrone],Cholesterol-free,[1]; [20],1.426
same,Complete,"[1]; NCI-H292 cells, complete media",1.109
same,Difference,[1]; [30],−0.32
same,Cholesterol-free media + simvastatin (0.04 μM),[2]; [23],1.409
same,Complete Media,[2]; [24],1.088
same,Difference,[2]; [25],−0.32
C[C@]12CC[C@@H]3c4ccc(OS(=O)(=O)O)cc4CC[C@H]3[C@@H]1CCC2=O [Estropipate],Difference,[1]; [26],−0.48
same,Cholesterol-free,[1]; [27],1.475
same,Complete,[1]; [28],0.9927
same,Cholesterol-free media + simvastatin (0.04 μM),[2]; [21],0.9313
same,Complete Media,[2]; [22],1.077
same,Difference,[2]; [12],0.15
CCN(CC)C(=O)c1ccc(O)c(OC)c1 [Etamivan],Difference,[1]; [26],−0.50
same,Cholesterol-free,[1]; [27],1.483
same,Complete,[1]; [28],0.9848
same,Cholesterol-free media + simvastatin (0.04 μM),[2]; [23],1.227
same,Complete Media,[2]; [24],0.9141
same,Difference,[2]; [25],−0.31
CC(O)C(=O)O.CCOc1ccc2nc3cc(N)ccc3c(N)c2c1.O [Ethacridine (lactate monohydrate)],Difference,[1]; [29],−0.05
same,Cholesterol-free,[1]; [3],0.2006
same,Complete,[1]; [4],0.1519
same,Cholesterol-free media + simvastatin (0.04 μM),[2]; [6],0.1737
same,Complete Media,[2]; [7],0.1706
same,Difference,[2]; [8],0.00
CC(O)C(=O)O.CCOc1ccc2nc3cc(N)ccc3c(N)c2c1 [Ethacridine (lactate)],Difference,[1]; [29],−0.28
same,Cholesterol-free,[1]; [20],0.3206
same,Complete,"[1]; NCI-H292 cells, complete media",0.04483
same,Cholesterol-free media + simvastatin (0.04 μM),[2]; [21],0.2653
same,Complete Media,[2]; [22],0.1668
same,Difference,[2]; [19],−0.10
